Reference: the supplement of paper PMC11451515

Legend:
Conditions in all cases: 48 h
NOMO1 [1] = experiment: cell viability relative to DMSO control; higher = less cytotoxic
Outline: (§1)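 Viability is a per-plate percentage relative to DMSO wells, with cell-free wells as background. CellTiter-Glo One luminescence was read after 48 h at 37°C on 1536-well plates (5 μl) of NOMO1 or SEM (500 cells/well) or P12-Ichikawa (1000 cells/well) leukemia cells. The cells had been adapted for at least four passages in each medium and pin-dosed with library compounds in DMSO from 47 μM to 0.79 nM in 11 threefold steps.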

P12-Ichikawa [2] = experiment: as above
Outline: as §1

SEM cells [3] = experiment: as above
Outline: as §1

NOMO1 [4] = experiment: AUC of viability dose-response curve (% viability x log10 dose units); higher = less sensitive
Outline: (§2)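 Medium-adapted leukemia cells in 1536-well plates, at 500 or 1000 cells/well, were incubated for 48 h at 37°C with library compounds in DMSO at 11 threefold doses from 47 μM to 0.79 nM. CellTiter-Glo One luminescence normalised per plate to DMSO and cell-free wells was fitted with a four-parameter log-logistic model over log10 doses. Area under the curve was integrated from this fit by trapezoidal rule, with curves beyond full viability scaled and failed quality-control curves removed.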

P12-Ichikawa [5] = experiment: as above
Outline: as §2

SEM cells [6] = experiment: as above
Outline: as §2

Cc1onc(-c2ccccc2Cl)c1C(=O)N[C@@H]1C(=O)N2[C@@H]1SC(C)(C)[C@@H]2C(=O)[O-]
cell viability [%]
Conditions | NOMO1 [1] | P12-Ichikawa [2] | SEM cells [3]
HPLM + 10% dialyzed FBS, 0.000781 µM | 104 | 112 | 82.3
HPLM + 10% dialyzed FBS, 0.00234 µM | 104 | 116 | 77.1
HPLM + 10% dialyzed FBS, 0.00702 µM | 123 | 113 | 89.4
HPLM + 10% dialyzed FBS, 0.0211 µM | 116 | 116 | 97.7
HPLM + 10% dialyzed FBS, 0.0632 µM | 98.9 | 113 | 72
HPLM + 10% dialyzed FBS, 0.19 µM | 103 | 113 | 88.2
HPLM + 10% dialyzed FBS, 0.569 µM | 105 | 113 | 83.5
HPLM + 10% dialyzed FBS, 1.71 µM | 113 | 111 | 81.7
HPLM + 10% dialyzed FBS, 5.12 µM | 92.8 | 110 | 80.2
HPLM + 10% dialyzed FBS, 15.4 µM | 105 | 105 | 84.8
HPLM + 10% dialyzed FBS, 46.1 µM | 84.7 | 106 | 90
RPMI 5 mM glucose + 10% FBS, 0.000781 µM | 112 | 119 | 117
RPMI 5 mM glucose + 10% FBS, 0.00234 µM | 119 | 117 | 110
RPMI 5 mM glucose + 10% FBS, 0.00702 µM | 134 | 113 | 117
RPMI 5 mM glucose + 10% FBS, 0.0211 µM | 110 | 111 | 109
RPMI 5 mM glucose + 10% FBS, 0.0632 µM | 104 | 116 | 101
RPMI 5 mM glucose + 10% FBS, 0.19 µM | 115 | 114 | 102
RPMI 5 mM glucose + 10% FBS, 0.569 µM | 115 | 116 | 83.8
RPMI 5 mM glucose + 10% FBS, 1.71 µM | 107 | 110 | 116
RPMI 5 mM glucose + 10% FBS, 5.12 µM | 99.5 | 117 | 110
RPMI 5 mM glucose + 10% FBS, 15.4 µM | 97.9 | 101 | 99.4
RPMI 5 mM glucose + 10% FBS, 46.1 µM | 94.3 | 101 | 85.7
RPMI 5 mM glucose + 10% dialyzed FBS, 0.000781 µM | 117 | 103 | 102
RPMI 5 mM glucose + 10% dialyzed FBS, 0.00234 µM | 124 | 111 | 110
RPMI 5 mM glucose + 10% dialyzed FBS, 0.00702 µM | 123 | 115 | 119
RPMI 5 mM glucose + 10% dialyzed FBS, 0.0211 µM | 103 | 119 | 115
RPMI 5 mM glucose + 10% dialyzed FBS, 0.0632 µM | 111 | 126 | 107
RPMI 5 mM glucose + 10% dialyzed FBS, 0.19 µM | 103 | 109 | 115
RPMI 5 mM glucose + 10% dialyzed FBS, 0.569 µM | 102 | 120 | 96.3
RPMI 5 mM glucose + 10% dialyzed FBS, 1.71 µM | 108 | 105 | 113
RPMI 5 mM glucose + 10% dialyzed FBS, 5.12 µM | 110 | 112 | 99.9
RPMI 5 mM glucose + 10% dialyzed FBS, 15.4 µM | 84.1 | 98.4 | 104
RPMI 5 mM glucose + 10% dialyzed FBS, 46.1 µM | 96.3 | 98.1 | 108

AUC of viability dose-response curve
Conditions | NOMO1 [4] | P12-Ichikawa [5] | SEM cells [6]
HPLM + 10% dialyzed FBS | 455 | 469 | 402
RPMI 5 mM glucose + 10% FBS | 437 | 451 | 435
RPMI 5 mM glucose + 10% dialyzed FBS | 424 | 456 | 464

C[N]1C=C(C=N1)C2=C3\C=N/NC(=O)C4=C3C(=CC(=C4)NC(=O)[C@H](N)C5CCCCC5)[NH]2
cell viability [%]
Conditions | NOMO1 [1] | P12-Ichikawa [2] | SEM cells [3]
HPLM + 10% dialyzed FBS, 0.000781 µM | 99.8 | 103 | 87.7
HPLM + 10% dialyzed FBS, 0.00234 µM | 111 | 103 | 56.3
HPLM + 10% dialyzed FBS, 0.00702 µM | 97.7 | 99.7 | 85.5
HPLM + 10% dialyzed FBS, 0.0211 µM | 91.1 | 100 | 101
HPLM + 10% dialyzed FBS, 0.0632 µM | 104 | 99.7 | 79
HPLM + 10% dialyzed FBS, 0.19 µM | 101 | 103 | 90.8
HPLM + 10% dialyzed FBS, 0.569 µM | 91.6 | 94.5 | 68
HPLM + 10% dialyzed FBS, 1.71 µM | 78.3 | 81.1 | 58.3
HPLM + 10% dialyzed FBS, 5.12 µM | 72.6 | 65.5 | 36.5
HPLM + 10% dialyzed FBS, 15.4 µM | 35.7 | 45.1 | 20.7
HPLM + 10% dialyzed FBS, 46.1 µM | 36.6 | 12.3 | 11.6
RPMI 5 mM glucose + 10% FBS, 0.000781 µM | 95.1 | 98.4 | 101
RPMI 5 mM glucose + 10% FBS, 0.00234 µM | 97.2 | 101 | 67.1
RPMI 5 mM glucose + 10% FBS, 0.00702 µM | 93.5 | 99.1 | 94.4
RPMI 5 mM glucose + 10% FBS, 0.0211 µM | 87 | 99.9 | 99.2
RPMI 5 mM glucose + 10% FBS, 0.0632 µM | 100 | 97.3 | 92.9
RPMI 5 mM glucose + 10% FBS, 0.19 µM | 97.9 | 98.5 | 103
RPMI 5 mM glucose + 10% FBS, 0.569 µM | 84.3 | 92.7 | 81.3
RPMI 5 mM glucose + 10% FBS, 1.71 µM | 86.4 | 85.3 | 50.8
RPMI 5 mM glucose + 10% FBS, 5.12 µM | 80.2 | 61.7 | 34.5
RPMI 5 mM glucose + 10% FBS, 15.4 µM | 26 | 21.8 | 22
RPMI 5 mM glucose + 10% FBS, 46.1 µM | 29.1 | 7.78 | 8.73
RPMI 5 mM glucose + 10% dialyzed FBS, 0.000781 µM | 101 | 96.2 | 79.8
RPMI 5 mM glucose + 10% dialyzed FBS, 0.00234 µM | 90.4 | 98 | 50.8
RPMI 5 mM glucose + 10% dialyzed FBS, 0.00702 µM | 105 | 95.2 | 95.1
RPMI 5 mM glucose + 10% dialyzed FBS, 0.0211 µM | 89.7 | 90.5 | 86.2
RPMI 5 mM glucose + 10% dialyzed FBS, 0.0632 µM | 90.7 | 94.7 | 89.5
RPMI 5 mM glucose + 10% dialyzed FBS, 0.19 µM | 87 | 102 | 90
RPMI 5 mM glucose + 10% dialyzed FBS, 0.569 µM | 95.4 | 85.4 | 59.3
RPMI 5 mM glucose + 10% dialyzed FBS, 1.71 µM | 94.1 | 79.6 | 42.2
RPMI 5 mM glucose + 10% dialyzed FBS, 5.12 µM | 60.3 | 58.8 | 25
RPMI 5 mM glucose + 10% dialyzed FBS, 15.4 µM | 20.5 | 18.4 | 15.4
RPMI 5 mM glucose + 10% dialyzed FBS, 46.1 µM | 29 | 11.5 | 7.21

AUC of viability dose-response curve
Conditions | NOMO1 [4] | P12-Ichikawa [5] | SEM cells [6]
HPLM + 10% dialyzed FBS | 403 | 395 | 309
RPMI 5 mM glucose + 10% FBS | 390 | 387 | 334
RPMI 5 mM glucose + 10% dialyzed FBS | 384 | 371 | 283

CCOC(=O)[C@@H](N)Cc1ccc(-c2cc(O[C@H](c3ccc(Cl)cc3-n3ccc(C)n3)C(F)(F)F)nc(N)n2)cc1.O=C(O)CNC(=O)c1ccccc1
cell viability [%]
Conditions | NOMO1 [1] | P12-Ichikawa [2] | SEM cells [3]
HPLM + 10% dialyzed FBS, 0.000781 µM | 114 | 107 | 100
HPLM + 10% dialyzed FBS, 0.00234 µM | 111 | 110 | 129
HPLM + 10% dialyzed FBS, 0.00702 µM | 121 | 103 | 93.3
HPLM + 10% dialyzed FBS, 0.0211 µM | 125 | 112 | 133
HPLM + 10% dialyzed FBS, 0.0632 µM | 114 | 106 | 127
HPLM + 10% dialyzed FBS, 0.19 µM | 118 | 110 | 107
HPLM + 10% dialyzed FBS, 0.569 µM | 114 | 109 | 126
HPLM + 10% dialyzed FBS, 1.71 µM | 116 | 111 | 125
HPLM + 10% dialyzed FBS, 5.12 µM | 94.2 | 109 | 115
HPLM + 10% dialyzed FBS, 15.4 µM | 102 | 103 | 110
HPLM + 10% dialyzed FBS, 46.1 µM | 5.68 | 70.2 | 45.1
RPMI 5 mM glucose + 10% FBS, 0.000781 µM | 108 | 117 | 96.4
RPMI 5 mM glucose + 10% FBS, 0.00234 µM | 96.2 | 112 | 112
RPMI 5 mM glucose + 10% FBS, 0.00702 µM | 109 | 107 | 82.2
RPMI 5 mM glucose + 10% FBS, 0.0211 µM | 101 | 122 | 110
RPMI 5 mM glucose + 10% FBS, 0.0632 µM | 94.3 | 114 | 114
RPMI 5 mM glucose + 10% FBS, 0.19 µM | 90.3 | 121 | 103
RPMI 5 mM glucose + 10% FBS, 0.569 µM | 97.6 | 120 | 98.6
RPMI 5 mM glucose + 10% FBS, 1.71 µM | 103 | 122 | 113
RPMI 5 mM glucose + 10% FBS, 5.12 µM | 95.4 | 107 | 97.1
RPMI 5 mM glucose + 10% FBS, 15.4 µM | 90.1 | 96.2 | 115
RPMI 5 mM glucose + 10% FBS, 46.1 µM | 7.52 | 56.3 | 17.1
RPMI 5 mM glucose + 10% dialyzed FBS, 0.000781 µM | 102 | 109 | 106
RPMI 5 mM glucose + 10% dialyzed FBS, 0.00234 µM | 117 | 113 | 132
RPMI 5 mM glucose + 10% dialyzed FBS, 0.00702 µM | 102 | 107 | 111
RPMI 5 mM glucose + 10% dialyzed FBS, 0.0211 µM | 100 | 107 | 118
RPMI 5 mM glucose + 10% dialyzed FBS, 0.0632 µM | 97 | 102 | 102
RPMI 5 mM glucose + 10% dialyzed FBS, 0.19 µM | 98.6 | 113 | 119
RPMI 5 mM glucose + 10% dialyzed FBS, 0.569 µM | 122 | 110 | 120
RPMI 5 mM glucose + 10% dialyzed FBS, 1.71 µM | 105 | 108 | 111
RPMI 5 mM glucose + 10% dialyzed FBS, 5.12 µM | 98.3 | 107 | 109
RPMI 5 mM glucose + 10% dialyzed FBS, 15.4 µM | 88.6 | 103 | 117
RPMI 5 mM glucose + 10% dialyzed FBS, 46.1 µM | 4.2 | 44.1 | 24

AUC of viability dose-response curve
Conditions | NOMO1 [4] | P12-Ichikawa [5] | SEM cells [6]
HPLM + 10% dialyzed FBS | 449 | 466 | 462
RPMI 5 mM glucose + 10% FBS | 448 | 453 | 457
RPMI 5 mM glucose + 10% dialyzed FBS | 447 | 460 | 458
